According to PubChem BioAssay (NCI):
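Five concentrations, 48 hours, 96-well plates. GI50: concentration for 50% inhibition of growth. TGI: concentration producing complete growth inhibition.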

How the values were obtained:
Assay in all cases: NCI-60 cell line screen, 48 h
[1] = system: 786-0 renal
[2] = system: A498 renal
[3] = system: A549 NSCLC
[4] = system: ACHN renal
[5] = system: BT-549 breast
[6] = system: CAKI-1 renal
[7] = system: CCRF-CEM leukemia
[8] = system: COLO 205 colon
[9] = system: DU-145 prostate
[10] = system: EKVX NSCLC
[11] = system: HCC-2998 colon
[12] = system: HCT-116 colon
[13] = system: HCT-15 colon
[14] = system: HL-60(TB) leukemia
[15] = system: HOP-62 NSCLC
[16] = system: HOP-92 NSCLC
[17] = system: HS 578T breast
[18] = system: HT29 colon
[19] = system: IGROV1 ovarian
[20] = system: K-562 leukemia
[21] = system: KM12 colon
[22] = system: M14 melanoma
[23] = system: MALME-3M melanoma
[24] = system: MCF7 breast
[25] = system: MDA-MB-231 breast
[26] = system: MDA-MB-435
[27] = system: MOLT-4 leukemia

SMILES: CNC(=O)c1c(NC(=O)c2ccccc2C(F)(F)F)sc2c1CCC(=O)C2
- GI50 [1]: 3.8 µM
- TGI [1]: > 100 µM
- GI50 [2]: 2.09 µM
- TGI [2]: 6.24 µM
- GI50 [3]: 3.28 µM
- TGI [3]: > 100 µM
- GI50 [4]: 0.397 µM
- TGI [4]: 2.03 µM
- GI50 [5]: 2.54 µM
- TGI [5]: > 100 µM
- GI50 [6]: 0.464 µM
- TGI [6]: 2.55 µM
- GI50 [7]: 0.348 µM
- TGI [7]: > 100 µM
- GI50 [8]: 1.29 µM
- TGI [8]: 3.12 µM
- GI50 [9]: 4.45 µM
- TGI [9]: > 100 µM
- GI50 [10]: 1.99 µM
- TGI [10]: 37.6 µM
- GI50 [11]: 2.96 µM
- TGI [11]: 15.2 µM
- GI50 [12]: 0.384 µM
- TGI [12]: 12.1 µM
- GI50 [13]: 0.37 µM
- TGI [13]: 10.5 µM
- GI50 [14]: 0.339 µM
- TGI [14]: 13.4 µM
- GI50 [15]: 3.44 µM
- TGI [15]: > 100 µM
- GI50 [16]: 1.2 µM
- TGI [16]: 3.39 µM
- GI50 [17]: 3.01 µM
- TGI [17]: > 100 µM
- GI50 [18]: 1.45 µM
- TGI [18]: 9.66 µM
- GI50 [19]: 1.87 µM
- TGI [19]: 17.8 µM
- GI50 [20]: 0.417 µM
- TGI [20]: > 100 µM
- GI50 [21]: 4.29 µM
- TGI [21]: 16.8 µM
- GI50 [22]: 2.51 µM
- TGI [22]: 33.5 µM
- GI50 [23]: 2.26 µM
- TGI [23]: 6.33 µM
- GI50 [24]: 1.91 µM
- TGI [24]: 11.9 µM
- GI50 [25]: 2 µM
- TGI [25]: 4.78 µM
- GI50 [26]: 2.72 µM
- TGI [26]: 11.2 µM
- GI50 [27]: 1.2 µM
- TGI [27]: > 100 µM
